Laboratory results: patent US8278301B2, “2-alkylbenzoxazole carboxamides as 5HT3 modulators” (Albany Molecular Research, Inc., priority 2006, dated 2012)
Structures can show the parent of a compound that is named as a salt.

Assays:
[1] = target: T1, human 5-HT3 receptor (Homo sapiens, UniProt P46098); experiment: Compound affinity for the human 5-HT3 receptor (Assay D), [3H]BRL 43694 radioligand binding, Cerep; design: host or cells: CHO cells
T1 sequence (P46098 24-478): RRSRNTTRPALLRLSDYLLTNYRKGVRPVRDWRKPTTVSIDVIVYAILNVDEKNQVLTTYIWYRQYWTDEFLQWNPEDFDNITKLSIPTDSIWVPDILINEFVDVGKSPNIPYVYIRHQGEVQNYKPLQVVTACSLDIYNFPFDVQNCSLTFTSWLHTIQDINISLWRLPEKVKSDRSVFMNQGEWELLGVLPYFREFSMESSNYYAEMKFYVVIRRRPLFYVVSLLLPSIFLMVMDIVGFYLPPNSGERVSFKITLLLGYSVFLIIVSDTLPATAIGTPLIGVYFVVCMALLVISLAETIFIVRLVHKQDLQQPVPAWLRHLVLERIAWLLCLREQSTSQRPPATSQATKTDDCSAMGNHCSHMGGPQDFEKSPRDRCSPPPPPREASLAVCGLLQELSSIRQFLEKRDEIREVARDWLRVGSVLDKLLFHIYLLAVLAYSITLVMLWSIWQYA
Experimental: Compound Affinity for the Human 5-HT3Receptor (Assay D)
Compounds were tested by Cerep, Le Bois l'Evêque—B.P. 1-86600 Celle, L'Evescault, France in a radioligand binding assay using the human recombinant 5-HT3 receptor (CHO cells, Hope, A. G., Peters, J. A., Brown, A. M., Lambert, J. J. and Blackburn, T. P. Brit. J. Pharmacol., 1996, 118: 1237-1245) and [^3H]BRL 43694 (ligand) with a […] at 22° C. For the above studies, the non-specific binding determinant was MDL 72222 (10 μM). The IC50 values (concentration causing a half-maximal inhibition of control specific binding) and Hill coefficients were determined by non-linear regression analysis of the competition curves using Hill equation curve fitting. The inhibition constants (Ki) were calculated from the Cheng Prusoff equation (Ki=IC50/(1+(L/KD)), where L=concentration of radioligand in the assay, and KD=affinity of the radioligand for the receptor).
(§1) In the table below, the assay in which the data were obtained is shown (as A, B. C, or D) along with the data.

[2] = target: T1, human 5-HT3 receptor; experiment: Compound affinity for the human 5-HT3 receptor (Assay A), [3H]-GR65630 radioligand binding, MDS Pharma; design: host or cells: N1E-155 cell lines (so in the source)
Experimental: Compound Affinity for the Human 5-HT3 Receptor (Assay A)
(§2) Compounds were tested by MDS Pharma Services—Taiwan Ltd., 158 Li—The Road, Peitou, Taipei, Taiwan 112 R.O.C. In order to evaluate the relative affinity of the various compounds for the human 5-HT3 receptor, N1E-155 cell lines were developed to express the target protein. For binding, these cells were homogenized, centrifuged and washed with buffer (20 mM HEPES, 150 mM NaCl, pH 7.4) then suspended in 0.5 mL of buffer and [^3H]-GR65630 added at a concentration of 3.5×10^−10 M. An initial single concentration of 10^−7 M of the test compound was then added. Incubation was carried out at room temperature for 60 minutes at 25° C. then was terminated by rapid removal of the incubation medium. Radioactivity was assessed using liquid scintillation spectrophotometry after exposure to scintillation cocktail for at least three hours. […] Ki values were then calculated from the Cheng-Prusoff equation. In all of the above binding studies the non-specific determinant was MDL-72222 (1.0 μM).
as §1

[3] = target: T2, mouse 5-HT3 receptor (Mus musculus, UniProt P23979); experiment: Compound affinity for the mouse 5-HT3 receptor (Assay C), [3H]-GR65630 radioligand binding, Novoscreen; settings: Assay C; single concentration 100 nM, in duplicate; [3H]-GR65630; read-out: Mouse % Inhibition @ 100 nM
T2 construct: host or cells: mouse neuroblastoma cells (N1E-155 as printed)
T2 sequence (P23979 24-489): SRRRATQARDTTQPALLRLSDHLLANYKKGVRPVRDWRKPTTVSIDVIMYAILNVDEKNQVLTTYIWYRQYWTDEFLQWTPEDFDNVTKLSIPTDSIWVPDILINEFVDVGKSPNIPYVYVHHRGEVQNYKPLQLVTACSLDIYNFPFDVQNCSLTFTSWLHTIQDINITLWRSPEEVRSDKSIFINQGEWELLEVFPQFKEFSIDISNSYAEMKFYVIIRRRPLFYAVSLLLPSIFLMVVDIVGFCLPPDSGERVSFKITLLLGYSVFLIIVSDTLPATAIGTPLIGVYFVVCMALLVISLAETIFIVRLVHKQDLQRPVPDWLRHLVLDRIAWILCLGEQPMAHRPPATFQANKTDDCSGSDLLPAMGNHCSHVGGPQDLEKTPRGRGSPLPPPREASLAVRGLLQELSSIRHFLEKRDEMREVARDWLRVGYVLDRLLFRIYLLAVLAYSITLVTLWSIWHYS
Experimental: Compound Affinity for the Mouse 5-HT3Receptor (Assay C)
as §2, with “Novoscreen Biosciences Corporation, 7170 Standard Drive, Hanover, Md. in a radioligand binding assay using the mouse 5-HT3 receptor derived from mouse neuroblastoma cells and [^3H]-GR65630 (ligand). The non-specific binding determinant was MDL 72222. Compounds were tested at a single concentration of 100 nM in duplicate. Percent inhibition is reported.” for “MDS Pharma Services—Taiwan Ltd., 158 Li—The Road, Peitou, Taipei, Taiwan 112 R.O.C.”, “the” for “the human”
as §1

[4] = Assay D, recombinant receptor in CHO cells, [3H]BRL 43694, Cheng-Prusoff, read-out: Human 5HT3 Ki
[5] = Assay A, [3H]-GR65630, Cheng-Prusoff, read-out: Human 5HT3 Ki

| Compound | Ki [1] | inhibition at 0.1 µM [3] | also measured |
| --- | --- | --- | --- |
| O=C(N[C@@H]1CN2CCC1CC2)c1cccc2oc(Cc3ccccc3)nc12 [Example 10, (S)—N-(1-Azabicyclo[2.2.2]oct-3-yl)-2-benzylbenzoxazole-4-carboxamide Hydrochloride] |  |  | Ki [1, 4]: 21 nM |
| CN1[C@@H]2CCC[C@H]1C[C@@H](NC(=O)c1cccc3oc(C4CCOCC4)nc13)C2 [Example 24, Endo-N-(9-methyl-9-azabicyclo[3.3.1]non-3-yl)-2-(tetrahydro-2H-pyran-4-yl)benzoxazole-4-carboxamide Hydrochloride] |  |  | Ki [2, 5]: 17.6 nM |
| CN1[C@@H]2CCC[C@H]1C[C@@H](NC(=O)c1cccc3oc(Cc4ccccc4)nc13)C2 [Example 9, Endo-N-(9-Methyl-9-azabicyclo[3.3.1]non-3-yl)-2-benzylbenzoxazole-4-carboxamide Hydrochloride] | 11 nM | 94.7% |  |
| O=C(N[C@@H]1CN2CCC1CC2)c1cc(F)cc2oc(C3CC3)nc12 [Example 19, (S)—N-(1-Azabicyclo[2.2.2]oct-3-yl)-6-fluoro-2-cyclopropylbenzoxazole-4-carboxamide Hydrochloride] |  |  | Ki [1, 4]: 44 nM |
| O=C(N[C@@H]1CN2CCC1CC2)c1cccc2oc(CC3CC3)nc12 [Example 12, (S)—N-(1-Azabicyclo[2.2.2]oct-3-yl)-2-(cyclopropylmethyl)benzoxazole-4-carboxamide Hydrochloride] | 26 nM | 90.6% |  |
| CN1[C@@H]2CCC[C@H]1C[C@@H](NC(=O)c1cc(F)cc3oc(C4CC4)nc13)C2 [Example 20, Endo-N-(9-Methyl-9-azabicyclo[3.3.1]non-3-yl)-6-fluoro-2-cyclopropylbenzoxazole-4-carboxamide Hydrochloride] |  |  | Ki [1, 4]: 5.4 nM |
| Cc1nc2c(C(=O)N[C@@H]3CN4CCC3CC4)cccc2o1 [Example 35, (S)—N-(1-Azabicyclo[2.2.2]oct-3-yl)-2-methylbenzoxazole-4-carboxamide] | 12 nM | 83% |  |
| CC(=O)N1CCC(c2nc3c(C(=O)N[C@H]4C[C@H]5CCC[C@@H](C4)N5C)cccc3o2)CC1 [Example 23, Endo-N-(9-methyl-9-azabicyclo[3.3.1]non-3-yl)-2-(1-acetylpiperidin-4-yl)benzoxazole-4-carboxamide Hydrochloride] |  |  | Ki [2, 5]: 36.6 nM |
| CN1[C@@H]2CCC[C@H]1C[C@@H](NC(=O)c1cccc3oc(C4CCC4)nc13)C2 [Example 17, Endo-N-(9-Methyl-9-azabicyclo[3.3.1]non-3-yl)-2-cyclobutylbenzoxazole-4-carboxamide Hydrochloride] | 7 nM | 108% |  |
| O=C(N[C@@H]1CN2CCC1CC2)c1cccc2oc(C3CCC3)nc12 [Example 18, (S)—N-(1-Azabicyclo[2.2.2]oct-3-yl)-2-cyclobutylbenzoxazole-4-carboxamide Hydrochloride] | 7 nM | 108% |  |
| CN1[C@@H]2CCC[C@H]1C[C@@H](NC(=O)c1cccc3oc(C(C)(C)C)nc13)C2 [Example 3, Endo-N-(9-Methyl-9-azabicyclo[3.3.1]non-3-yl)-2-tert-butylbenzoxazole-4-carboxamide] | 4.7 nM | 104% |  |
| O=C(N[C@@H]1CN2CCC1CC2)c1cccc2ocnc12 [Example 22, (S)—N-(1-Azabicyclo[2.2.2]oct-3-yl)-benzoxazole-4-carboxamide Hydrochloride] |  |  | Ki [2, 5]: 16.6 nM |
| CC1CC1c1nc2c(C(=O)NC3CC4CCCC(C3)N4C)cccc2o1 (stereo not drawn) [Example 13, Endo-N-(9-Methyl-9-azabicyclo[3.3.1]non-3-yl)-2-(2-methylcyclopropyl)benzoxazole-4-carboxamide Hydrochloride] |  | 88.1% | Ki [2]: 5.74 nM |
| CC(C)(C)c1nc2c(C(=O)N[C@@H]3CN4CCC3CC4)cccc2o1 [Example 4, (S)—N-(1-Azabicyclo[2.2.2]oct-3-yl)-2-tert-butylbenzoxazole-4-carboxamide] | 30 nM | 94.3% |  |
| CC1(c2nc3c(C(=O)N[C@@H]4CN5CCC4CC5)cccc3o2)CC1 [Example 8, (S)—N-(1-Azabicyclo[2.2.2]oct-3-yl)-2-(1-methylcyclopropyl)benzoxazole-4-carboxamide Hydrochloride] | 19 nM | 97.6% |  |
| CN1[C@@H]2CCC[C@H]1C[C@@H](NC(=O)c1cccc3oc(C4(C)CC4)nc13)C2 [Example 7, Endo-N-(9-Methyl-9-azabicyclo[3.3.1]non-3-yl)-2-(1-methylcyclopropyl)benzoxazole-4-carboxamide Hydrochloride] | 3.3 nM | 96.7% |  |
| CN1[C@@H]2CCC[C@H]1C[C@@H](NC(=O)c1cccc3oc(C4CCCC4)nc13)C2 [Example 5, Endo-N-(9-Methyl-9-azabicyclo[3.3.1]non-3-yl)-2-cyclopentylbenzoxazole-4-carboxamide Hydrochloride] |  | 96.2% | Ki [2]: 2.27 nM |
| Cc1nc2c(C(=O)N[C@H]3C[C@H]4CCC[C@@H](C3)N4C)cccc2o1 [Example 34, Endo-N-(9-Methyl-9-azabicyclo[3.3.1]non-3-yl)-2-methylbenzoxazole-4-carboxamide] | 5.5 nM | 79% |  |
| CN1[C@@H]2CCC[C@H]1C[C@@H](NC(=O)c1cccc3oc(CC4CC4)nc13)C2 [Example 11, Endo-N-(9-Methyl-9-azabicyclo[3.3.1]non-3-yl)-2-(cyclopropylmethyl)benzoxazole-4-carboxamide Hydrochloride] | 8.6 nM | 98.6% |  |
